This note sets out measurements from ChEMBL document CHEMBL1157348, “The alkaloid conessine and analogues as potent histamine H3 receptor antagonists” (J Med Chem, 2008).

Data set [1] is described as follows: Inhibition of CYP enzyme. Type of data set: ADME.
In data set [2] the target is T1, Histamine H3 receptor (Homo sapiens, UniProt Q9Y5N1). The experiment in a line: Antagonist activity at H3 receptor assessed as inhibition of [35S]gammaGTP binding relative to control.
Data set [3] is described as follows: Selectivity ratio for human adrenergic alpha 2C4 receptor over human H3 receptor.
The subject of data set [4] is Phospholipidosis. Nature of the data set: In vitro phospholipidosis index at 6.25 uM compared to amiodarone at 10 uM. It is filed as ADME, cell-based, Hepatocyte. To be noted: hepatocytes.
Data set [5] addresses Histamine H2 receptor (Homo sapiens, UniProt P25021). Nature of the data set: Displacement of [3H]tiotidine from human histamine H2 receptor. The settings on record: read-out: Ki.
Data set [6] concerns the target T2, Androgen receptor (Homo sapiens, UniProt P10275).
T2 sequence (P10275 whole entry): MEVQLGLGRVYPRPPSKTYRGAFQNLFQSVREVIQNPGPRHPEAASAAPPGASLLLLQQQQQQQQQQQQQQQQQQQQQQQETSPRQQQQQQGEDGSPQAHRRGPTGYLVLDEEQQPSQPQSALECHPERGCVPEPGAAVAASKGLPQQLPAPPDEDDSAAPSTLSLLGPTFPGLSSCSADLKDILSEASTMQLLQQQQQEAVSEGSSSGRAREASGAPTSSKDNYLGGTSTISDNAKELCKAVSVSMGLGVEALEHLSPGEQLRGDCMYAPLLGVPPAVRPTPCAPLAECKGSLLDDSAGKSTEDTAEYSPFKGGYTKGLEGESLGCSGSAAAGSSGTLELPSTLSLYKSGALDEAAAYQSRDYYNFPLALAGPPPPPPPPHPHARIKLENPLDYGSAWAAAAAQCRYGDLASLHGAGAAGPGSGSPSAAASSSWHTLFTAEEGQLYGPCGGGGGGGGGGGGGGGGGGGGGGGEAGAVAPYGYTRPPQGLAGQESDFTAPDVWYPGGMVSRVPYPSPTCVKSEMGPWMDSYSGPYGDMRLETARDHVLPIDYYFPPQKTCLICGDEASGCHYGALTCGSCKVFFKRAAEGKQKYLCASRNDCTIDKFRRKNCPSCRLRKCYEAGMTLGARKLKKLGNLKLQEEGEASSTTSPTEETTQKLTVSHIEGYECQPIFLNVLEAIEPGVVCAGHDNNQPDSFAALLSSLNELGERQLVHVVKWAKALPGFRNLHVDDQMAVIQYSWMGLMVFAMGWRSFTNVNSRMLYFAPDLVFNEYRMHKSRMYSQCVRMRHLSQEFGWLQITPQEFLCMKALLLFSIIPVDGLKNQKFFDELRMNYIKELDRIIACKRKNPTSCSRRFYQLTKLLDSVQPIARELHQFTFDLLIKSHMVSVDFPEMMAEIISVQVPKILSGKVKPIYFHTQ
Nature of the data set: Binding affinity at androgen receptor.

Data set [7] has as its target T1, Histamine H3 receptor. Nature of the data set: Displacement of [3H]NAMH from human full length histamine H3 receptor expressed in rat C6 cells. Type of data set: cell-based. In general terms: In a radioligand displacement assay an active substance lowers the binding of a labelled ligand.
Data set [8] concerns the target Histamine H4 receptor (Homo sapiens, UniProt Q9H3N8). Nature of the data set: Displacement of [3H]histamine from human histamine H4 receptor expressed in HEK cells. To be noted: read-out: Ki. It is filed as cell-based, HEK293.
For data set [9], the target named is T3, Muscarinic acetylcholine receptor M1 (Homo sapiens, UniProt P11229).
T3 sequence (P11229 whole entry): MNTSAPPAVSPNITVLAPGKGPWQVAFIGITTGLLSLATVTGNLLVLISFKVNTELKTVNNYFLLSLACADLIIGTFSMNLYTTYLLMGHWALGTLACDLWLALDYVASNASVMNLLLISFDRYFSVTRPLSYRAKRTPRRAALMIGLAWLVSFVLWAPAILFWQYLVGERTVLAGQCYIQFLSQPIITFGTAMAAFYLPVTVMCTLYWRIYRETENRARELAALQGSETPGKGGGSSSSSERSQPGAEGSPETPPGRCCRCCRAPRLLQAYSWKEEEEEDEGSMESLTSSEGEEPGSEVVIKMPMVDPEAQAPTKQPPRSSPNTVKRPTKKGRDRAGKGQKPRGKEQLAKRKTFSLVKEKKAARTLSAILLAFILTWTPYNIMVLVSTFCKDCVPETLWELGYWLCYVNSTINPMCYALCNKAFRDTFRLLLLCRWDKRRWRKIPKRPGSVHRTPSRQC
Nature of the data set: Binding affinity at muscarinic M1 receptor.

The target in data set [10] is T1, Histamine H3 receptor. Nature of the data set: Antagonist activity at human full length histamine H3 receptor expressed in HEK293 cells assessed as inhibition of (R)-alpha-methylhistamine-induced intracellular calcium release by FLIPR. It is filed as functional, cell-based.
A short description of data set [11]: Oral bioavailability in rat. Type of data set: ADME, organism-based. The settings on record: in vivo.
In data set [12] the target is T4, Alpha-2C adrenergic receptor (Homo sapiens, UniProt P18825).
T4 sequence (P18825 whole entry): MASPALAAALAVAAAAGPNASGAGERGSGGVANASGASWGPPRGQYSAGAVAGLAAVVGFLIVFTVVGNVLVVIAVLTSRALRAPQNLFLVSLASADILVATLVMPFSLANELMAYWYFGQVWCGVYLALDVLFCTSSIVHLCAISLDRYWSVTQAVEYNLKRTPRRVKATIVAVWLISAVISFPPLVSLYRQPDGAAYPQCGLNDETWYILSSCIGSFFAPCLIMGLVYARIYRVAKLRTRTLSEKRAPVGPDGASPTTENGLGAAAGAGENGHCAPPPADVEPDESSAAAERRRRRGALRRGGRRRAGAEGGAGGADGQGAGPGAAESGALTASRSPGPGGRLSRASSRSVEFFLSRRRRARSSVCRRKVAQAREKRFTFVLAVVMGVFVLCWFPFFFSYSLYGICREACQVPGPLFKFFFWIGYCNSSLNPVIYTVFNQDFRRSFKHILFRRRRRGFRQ
Nature of the data set: Displacement of [3H]rauwolscine from human adrenergic alpha 2C4 receptor expressed in mouse LTK- cells. It is filed as cell-based.

Data set [13] deals with T1, Histamine H3 receptor. The experiment in a line: Antagonist activity at H3 receptor assessed as inhibition of forskolin-induced cAMP release by SPA. It is filed as functional.
Data set [14] can be described thus: Binding affinity at cholinergic receptor.
Data set [15] concerns the target T5, Histamine H3 receptor (Rattus norvegicus, UniProt Q9QYN8). Nature of the data set: Displacement of [3H]NAMH from rat full length histamine H3 receptor expressed in rat C6 cells. It is filed as cell-based. To be noted: read-out: Ki.
Data set [16] addresses Histamine H1 receptor (Homo sapiens, UniProt P35367). Nature of the data set: Displacement of [3H]mepyramine from human histamine H1 receptor. To be noted: read-out: Ki.
The target of data set [17] is T5, Histamine H3 receptor. The experiment in a line: Displacement of [3H]NAMH from histamine H3 receptor in rat cortex. To be noted: read-out: Ki.

T1 sequence (Q9Y5N1 whole entry): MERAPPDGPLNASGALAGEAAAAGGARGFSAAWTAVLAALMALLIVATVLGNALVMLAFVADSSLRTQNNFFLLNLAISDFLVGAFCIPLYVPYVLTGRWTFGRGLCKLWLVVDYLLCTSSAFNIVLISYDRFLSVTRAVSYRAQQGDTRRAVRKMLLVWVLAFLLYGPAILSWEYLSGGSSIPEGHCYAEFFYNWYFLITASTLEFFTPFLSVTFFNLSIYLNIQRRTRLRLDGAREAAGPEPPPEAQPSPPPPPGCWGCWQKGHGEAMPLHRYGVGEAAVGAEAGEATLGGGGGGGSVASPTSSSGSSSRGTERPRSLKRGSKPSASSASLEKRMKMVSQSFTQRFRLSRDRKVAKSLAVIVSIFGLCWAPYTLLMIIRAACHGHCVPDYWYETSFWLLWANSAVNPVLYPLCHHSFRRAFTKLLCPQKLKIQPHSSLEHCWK
T5 sequence (Q9QYN8 whole entry): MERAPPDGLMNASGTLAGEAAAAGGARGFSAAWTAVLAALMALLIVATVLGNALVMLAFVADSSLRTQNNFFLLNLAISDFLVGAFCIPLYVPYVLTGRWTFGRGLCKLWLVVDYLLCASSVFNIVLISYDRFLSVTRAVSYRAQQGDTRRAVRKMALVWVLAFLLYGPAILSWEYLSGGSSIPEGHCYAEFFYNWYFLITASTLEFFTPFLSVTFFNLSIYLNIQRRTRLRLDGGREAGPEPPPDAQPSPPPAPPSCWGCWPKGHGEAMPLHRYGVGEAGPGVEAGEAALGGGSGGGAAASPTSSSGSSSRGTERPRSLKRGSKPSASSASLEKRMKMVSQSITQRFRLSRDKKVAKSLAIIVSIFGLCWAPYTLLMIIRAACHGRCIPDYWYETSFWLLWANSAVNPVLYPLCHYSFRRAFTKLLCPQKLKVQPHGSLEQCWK
Sequence of Histamine H1 receptor (P35367 whole entry): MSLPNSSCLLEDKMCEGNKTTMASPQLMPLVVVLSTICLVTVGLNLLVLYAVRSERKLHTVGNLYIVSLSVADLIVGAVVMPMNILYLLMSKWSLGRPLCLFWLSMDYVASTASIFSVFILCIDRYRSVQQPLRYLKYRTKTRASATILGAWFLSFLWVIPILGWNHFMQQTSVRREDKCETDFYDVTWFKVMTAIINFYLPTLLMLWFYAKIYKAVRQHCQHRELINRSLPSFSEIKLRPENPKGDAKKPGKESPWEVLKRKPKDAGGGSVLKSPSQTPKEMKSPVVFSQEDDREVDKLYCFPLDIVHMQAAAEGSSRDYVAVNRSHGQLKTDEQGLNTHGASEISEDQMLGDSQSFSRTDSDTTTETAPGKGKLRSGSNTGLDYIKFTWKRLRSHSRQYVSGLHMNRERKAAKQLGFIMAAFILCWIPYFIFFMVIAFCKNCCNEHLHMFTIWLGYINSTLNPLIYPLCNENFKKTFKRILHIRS
Sequence of Histamine H4 receptor (Q9H3N8 whole entry): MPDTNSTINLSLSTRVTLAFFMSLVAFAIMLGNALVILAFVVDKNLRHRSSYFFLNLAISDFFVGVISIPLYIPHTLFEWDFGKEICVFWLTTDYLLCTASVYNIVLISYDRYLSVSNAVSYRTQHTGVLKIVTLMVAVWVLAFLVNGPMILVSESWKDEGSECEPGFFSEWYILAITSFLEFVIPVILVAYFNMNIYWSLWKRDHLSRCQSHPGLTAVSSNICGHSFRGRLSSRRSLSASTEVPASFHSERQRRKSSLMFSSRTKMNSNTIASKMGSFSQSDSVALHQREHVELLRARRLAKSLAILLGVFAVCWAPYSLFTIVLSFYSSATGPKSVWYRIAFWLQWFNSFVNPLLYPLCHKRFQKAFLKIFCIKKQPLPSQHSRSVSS
Sequence of Histamine H2 receptor (P25021 whole entry): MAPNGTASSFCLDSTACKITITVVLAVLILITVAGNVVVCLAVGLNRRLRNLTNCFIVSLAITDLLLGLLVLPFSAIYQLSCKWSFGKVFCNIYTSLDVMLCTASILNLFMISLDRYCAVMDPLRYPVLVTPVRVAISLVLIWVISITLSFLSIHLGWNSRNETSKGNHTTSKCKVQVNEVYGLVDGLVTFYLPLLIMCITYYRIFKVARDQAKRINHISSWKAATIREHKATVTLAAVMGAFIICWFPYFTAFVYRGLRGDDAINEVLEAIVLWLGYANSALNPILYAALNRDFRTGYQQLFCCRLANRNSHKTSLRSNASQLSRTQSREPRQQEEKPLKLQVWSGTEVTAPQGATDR

What is called IC50 is the concentration at which inhibition is half-maximal. Read a low IC50 as higher potency. For orientation: EC50 means the midpoint of the concentration-response curve. For orientation: Ki means a dissociation constant, usually derived from enzyme kinetics or from competition with a known ligand. What is called Kb is the affinity of an antagonist, worked out from how it opposes an agonist. A word on the bioavailability: it is dose-corrected exposure relative to a reference, in per cent. High values mean good availability, low ones poor availability. In [1], `CN[C@@H](C(=O)N(C)[C@H]1CC[C@@]2(C)C(=CC[C@H]3[C@@H]4CC[C@@H]5[C@H](C)N(C)C[C@@]54CC[C@@H]32)C1)C(C)C` had an IC50 above 10 µM. For the same molecule, the EC50 in data set [2] is 3.3 nM. In [3], the Selectivity ratio came out at 370. The molecule further yielded a Phospholipidosis_index in [4] of 0.42. In addition, the Ki in data set [5] is above 10 µM; in [6], above 30 µM; in data set [7], 0.21 nM; in data set [8] it was above 10 µM; in [9], 11 nM; in data set [12], 77.6 nM. The Ki in data set [14] is above 10 µM; in [15], 2.57 nM; in data set [16], above 10 µM; in data set [17] it was 2.57 nM. For the same molecule, the Kb in data set [10] and in data set [13] was 4 nM throughout. In [11], the bioavailability was found to be 65%.
